Tested on: 439559-082-T-J2-PDC complex spheroid growth
Assay: Anticancer human tumor 439559-082-T-J2-PDC patient-derived colon adenocarcinoma cell line growth inhibition [Asc]
Details: for IC50: curve of first compound; for viability, T/C: stronger effect = lower value
Summary of the method: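 Spheroid model: tumor line + HUVEC + hMSC. Single agents and combinations; top conc. at/near clinical Cmax (10 microM if undetermined), half-log dilutions. DMSO stocks at 800-fold test concentration.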

[1] = second compound 0.1 µM, first compound 0.0316 µM
[2] = second compound 0.1 µM, first compound 0.1 µM
[3] = second compound 0.316 µM, first compound 0.0316 µM
[4] = second compound 0.316 µM, first compound 0.1 µM
[5] = second compound 1 µM, first compound 0.0316 µM
[6] = second compound 1 µM, first compound 0.1 µM
[7] = second compound 3.16 µM, first compound 0.0316 µM
[8] = second compound 3.16 µM, first compound 0.1 µM
[9] = second compound 10 µM, first compound 0.0316 µM
[10] = second compound 10 µM, first compound 0.1 µM
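Note: spheroids exposed to agents for 7 days starting day 3 after seeding.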
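Throughout, for viability, T/C: percent of DMSO vehicle control viability with 100% = vehicle.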

SMILES: Cc1nc(N2CCC3(CC2)COC(C)C3N)c(CO)nc1Sc1ccnc(N)c1Cl (configuration not stated) + CNC(C)C(=O)NC1CN(S(=O)(=O)c2cccc(S(=O)(=O)N3CCC4CCC(C(=O)NC(c5ccccc5)c5ccccc5)N4C(=O)C(NC(=O)C(C)NC)C3)c2)CCC2CCC(C(=O)NC(c3ccccc3)c3ccccc3)N2C1=O
- IC50 (second compound 0.00316 µM): > 3 µM
- IC50 (second compound 0.01 µM): > 3 µM
- IC50 (second compound 0.0316 µM): > 3 µM
- IC50 (second compound 0.1 µM): > 3 µM
- IC50 (second compound 0.316 µM): > 3 µM
- IC50 (second compound 1 µM): 2.27 µM
- viability, T/C (second compound 0.00316 µM, first compound 0.00949 µM): 98.2%
- viability, T/C (second compound 0.00316 µM, first compound 0.03 µM): 91.5%
- viability, T/C (second compound 0.00316 µM, first compound 0.0949 µM): 89.7%
- viability, T/C (second compound 0.00316 µM, first compound 0.3 µM): 94%
- viability, T/C (second compound 0.00316 µM, first compound 0.949 µM): 95.4%
- viability, T/C (second compound 0.00316 µM, first compound 3 µM): 71.5%
- viability, T/C (second compound 0.01 µM, first compound 0.00949 µM): 98.4%
- viability, T/C (second compound 0.01 µM, first compound 0.03 µM): 104%
- viability, T/C (second compound 0.01 µM, first compound 0.0949 µM): 95.3%
- viability, T/C (second compound 0.01 µM, first compound 0.3 µM): 83%
- viability, T/C (second compound 0.01 µM, first compound 0.949 µM): 87.3%
- viability, T/C (second compound 0.01 µM, first compound 3 µM): 73.3%
- viability, T/C (second compound 0.0316 µM, first compound 0.00949 µM): 104%
- viability, T/C (second compound 0.0316 µM, first compound 0.03 µM): 98.8%
- viability, T/C (second compound 0.0316 µM, first compound 0.0949 µM): 89.4%
- viability, T/C (second compound 0.0316 µM, first compound 0.3 µM): 97.2%
- viability, T/C (second compound 0.0316 µM, first compound 0.949 µM): 75.8%
- viability, T/C (second compound 0.0316 µM, first compound 3 µM): 69.5%
- viability, T/C (second compound 0.1 µM, first compound 0.00949 µM): 93.7%
- viability, T/C (second compound 0.1 µM, first compound 0.03 µM): 96.7%
- viability, T/C (second compound 0.1 µM, first compound 0.0949 µM): 95.5%
- viability, T/C (second compound 0.1 µM, first compound 0.3 µM): 84.2%
- viability, T/C (second compound 0.1 µM, first compound 0.949 µM): 81.3%
- viability, T/C (second compound 0.1 µM, first compound 3 µM): 64.8%
- viability, T/C (second compound 0.316 µM, first compound 0.00949 µM): 94.4%
- viability, T/C (second compound 0.316 µM, first compound 0.03 µM): 88.1%
- viability, T/C (second compound 0.316 µM, first compound 0.0949 µM): 79%
- viability, T/C (second compound 0.316 µM, first compound 0.3 µM): 72.1%
- viability, T/C (second compound 0.316 µM, first compound 0.949 µM): 67%
- viability, T/C (second compound 0.316 µM, first compound 3 µM): 59.9%
- viability, T/C (second compound 1 µM, first compound 0.00949 µM): 72.9%
- viability, T/C (second compound 1 µM, first compound 0.03 µM): 76.8%
- viability, T/C (second compound 1 µM, first compound 0.0949 µM): 69.3%
- viability, T/C (second compound 1 µM, first compound 0.3 µM): 62.9%
- viability, T/C (second compound 1 µM, first compound 0.949 µM): 66.6%
- viability, T/C (second compound 1 µM, first compound 3 µM): 45%

SMILES: Cn1ncnc1[C@H]1c2n[nH]c(=O)c3cc(F)cc(c23)N[C@@H]1c1ccc(F)cc1 + Cc1c(S(C)(=O)=O)c(-c2cc(F)cc(N3CCN(c4ccc(NS(=O)(=O)c5ccc(NC(CCN6CCC(C(=O)OCCCP(=O)(O)O)CC6)CSc6ccccc6)c(S(=O)(=O)C(F)(F)F)c5)cc4)CC3)c2)c(-c2ccc(Cl)cc2)n1C(C)C
- IC50 (second compound 0.1 µM): > 0.1 µM
- IC50 (second compound 0.316 µM): > 0.1 µM
- IC50 (second compound 1 µM): > 0.1 µM
- IC50 (second compound 3.16 µM): > 0.1 µM
- IC50 (second compound 10 µM): > 0.1 µM
- viability, T/C (second compound 0.1 µM, first compound 0.000316 µM): 102%
- viability, T/C (second compound 0.1 µM, first compound 0.001 µM): 106%
- viability, T/C (second compound 0.1 µM, first compound 0.00316 µM): 103%
- viability, T/C (second compound 0.1 µM, first compound 0.01 µM): 85.5%
- viability, T/C [1]: 98%
- viability, T/C [2]: 87.7%
- viability, T/C (second compound 0.316 µM, first compound 0.000316 µM): 100%
- viability, T/C (second compound 0.316 µM, first compound 0.001 µM): 98.8%
- viability, T/C (second compound 0.316 µM, first compound 0.00316 µM): 102%
- viability, T/C (second compound 0.316 µM, first compound 0.01 µM): 90.2%
- viability, T/C [3]: 90.4%
- viability, T/C [4]: 84.8%
- viability, T/C (second compound 1 µM, first compound 0.000316 µM): 91%
- viability, T/C (second compound 1 µM, first compound 0.001 µM): 93.3%
- viability, T/C (second compound 1 µM, first compound 0.00316 µM): 102%
- viability, T/C (second compound 1 µM, first compound 0.01 µM): 83%
- viability, T/C [5]: 85.4%
- viability, T/C [6]: 81.1%
- viability, T/C (second compound 3.16 µM, first compound 0.000316 µM): 85%
- viability, T/C (second compound 3.16 µM, first compound 0.001 µM): 89.3%
- viability, T/C (second compound 3.16 µM, first compound 0.00316 µM): 92.7%
- viability, T/C (second compound 3.16 µM, first compound 0.01 µM): 81.3%
- viability, T/C [7]: 79.4%
- viability, T/C [8]: 76.3%
- viability, T/C (second compound 10 µM, first compound 0.000316 µM): 72.7%
- viability, T/C (second compound 10 µM, first compound 0.001 µM): 74%
- viability, T/C (second compound 10 µM, first compound 0.00316 µM): 75%
- viability, T/C (second compound 10 µM, first compound 0.01 µM): 76.8%
- viability, T/C [9]: 70.8%
- viability, T/C [10]: 66.5%

SMILES: O=C(c1cc(Cc2n[nH]c(=O)c3ccccc23)ccc1F)N1CCN(C(=O)C2CC2)CC1 + Cc1c(S(C)(=O)=O)c(-c2cc(F)cc(N3CCN(c4ccc(NS(=O)(=O)c5ccc(NC(CCN6CCC(C(=O)OCCCP(=O)(O)O)CC6)CSc6ccccc6)c(S(=O)(=O)C(F)(F)F)c5)cc4)CC3)c2)c(-c2ccc(Cl)cc2)n1C(C)C
- IC50 (second compound 0.1 µM): > 10 µM
- IC50 (second compound 0.316 µM): > 10 µM
- IC50 (second compound 1 µM): > 10 µM
- IC50 (second compound 3.16 µM): > 10 µM
- IC50 (second compound 10 µM): > 10 µM
- viability, T/C [1]: 101%
- viability, T/C [2]: 110%
- viability, T/C (second compound 0.1 µM, first compound 0.316 µM): 98.4%
- viability, T/C (second compound 0.1 µM, first compound 1 µM): 92.6%
- viability, T/C (second compound 0.1 µM, first compound 3.16 µM): 98.1%
- viability, T/C (second compound 0.1 µM, first compound 10 µM): 90.9%
- viability, T/C [3]: 86%
- viability, T/C [4]: 102%
- viability, T/C (second compound 0.316 µM, first compound 0.316 µM): 109%
- viability, T/C (second compound 0.316 µM, first compound 1 µM): 92.5%
- viability, T/C (second compound 0.316 µM, first compound 3.16 µM): 99%
- viability, T/C (second compound 0.316 µM, first compound 10 µM): 90.3%
- viability, T/C [5]: 91.3%
- viability, T/C [6]: 101%
- viability, T/C (second compound 1 µM, first compound 0.316 µM): 105%
- viability, T/C (second compound 1 µM, first compound 1 µM): 93%
- viability, T/C (second compound 1 µM, first compound 3.16 µM): 92.4%
- viability, T/C (second compound 1 µM, first compound 10 µM): 92.8%
- viability, T/C [7]: 93%
- viability, T/C [8]: 101%
- viability, T/C (second compound 3.16 µM, first compound 0.316 µM): 96.1%
- viability, T/C (second compound 3.16 µM, first compound 1 µM): 80%
- viability, T/C (second compound 3.16 µM, first compound 3.16 µM): 98.4%
- viability, T/C (second compound 3.16 µM, first compound 10 µM): 86.1%
- viability, T/C [9]: 71.6%
- viability, T/C [10]: 73.6%
- viability, T/C (second compound 10 µM, first compound 0.316 µM): 92.2%
- viability, T/C (second compound 10 µM, first compound 1 µM): 84.1%
- viability, T/C (second compound 10 µM, first compound 3.16 µM): 76.5%
- viability, T/C (second compound 10 µM, first compound 10 µM): 72.7%

From PubChem BioAssay AID1963423 (Molecular Pharmacology Branch, DTP, NCI, 2024)
